Assay results as given in the NIST ThermoML archive (doi:10.1016/j.jct.2013.09.039).

Conditions: Liquid, Vibrating tube method

Cc1ccc(C)cc1 [1,4-dimethylbenzene]
mass density [kg/m3]
Conditions | 100 kPa | 5000 kPa | 10000 kPa | 20000 kPa | 30000 kPa | 40000 kPa
288.15 K | 864.9 | 868.3 | 871.8 | 878.1 | 884 | 889.7
298.15 K | 856.2 | 860.2 | 863.5 | 870.1 | 876.5 | 882.2
308.15 K | 847.5 | 851.4 | 855.2 | 862.1 | 868.6 | 874.8
